The values below are quoted from earlier work in US5545620A, “Synthetic fibronectin fragments as inhibitors of retroviral infection” (priority 1994, dated 1996).

The subject of the data set is cell adhesion. The note with it: cited from earlier work.

For “FN-6: fibronectin fragment (1961-1985) SEQ ID NO. 6, restricted to isoforms containing the type IIIcs region (DELPQLVTLPHPNLHGPEILDVPST)”, the “promotion of cell adhesion” value is “promotes cell adhesion by an α4β1 integrin-dependent mechanism”.
Turning to “YEKPGSPPREWPRPRPGV (YEKPGSPPREVVPRPRPGV) [FN-1]”, the “promotion of cell adhesion” value is on record as “promote cell adhesion”.
As to KNNQKSEPLIGRKKT [FN-2], the “promotion of cell adhesion” value is on record as “promote cell adhesion”.
